Test results reported in ChEMBL document CHEMBL3885861, “Open TG-GATES”.

Species on record: Rattus norvegicus
Assay: Open TG-GATES - Regimen: Daily Repeat
Assay type: toxicity, organism-based, Sprague-Dawley
Set-up: regimen Daily Repeat, gender Male, age 6 weeks
Details: in vivo, po, route gavage; for APTT / Bas / Eos / Fbg / Ht / Lym / MCH / MCHC / MCV / Mono / Neu / Plat / RBC / Ret / WBC: tissue Blood; for ALP / ALT / AST / BUN / CRE / DBIL / GLC / IP / K / LDH / Na / PL / RALB / TBIL / TC / TG / TP / gamma-GTP: tissue Plasma
[1] = 0 mg/kg, 72 h, dose level Control, time 3 day
[2] = 0 mg/kg, […], dose level Control, time 7 day
[3] = 0 mg/kg, […], dose level Control, time 14 day
[4] = 0 mg/kg, […], dose level Control, time 28 day
[5] = 45 mg/kg, 72 h, dose level Low, time 3 day
[6] = 45 mg/kg, […], dose level Low, time 7 day
[7] = 45 mg/kg, […], dose level Low, time 14 day
[8] = 45 mg/kg, […], dose level Low, time 28 day

SMILES: CCCC(CCC)C(=O)O [VALPROIC ACID]
- TERMINAL_BW [1]: 222 g
- APTT [1]: 18.8 s
- Bas [1]: 0%
- Eos [1]: 1%
- Fbg [1]: 222.8 mg/dL
- Ht [1]: 37.7%
- Lym [1]: 82.2%
- MCH [1]: 21.3 pg
- MCHC [1]: 34.2%
- MCV [1]: 62.3 fL
- Mono [1]: 3.4%
- Neu [1]: 12.8%
- Plat [1]: 135 x10_4/uL
- RBC [1]: 604.8 x10_4/ul
- Ret [1]: 6.6%
- WBC [1]: 101 x10_2/uL
- ALP [1]: 1099.6 IU/L
- ALT [1]: 35.6 IU/L
- AST [1]: 65.4 IU/L
- BUN [1]: 16.2 mg/dL
- CRE [1]: 0.4 mg/dL
- DBIL [1]: 0.062 mg/dL
- GLC [1]: 216.2 mg/dL
- IP [1]: 8 mg/dL
- K [1]: 4.1 meq/L
- LDH [1]: 206.6 IU/L
- Na [1]: 140.8 meq/L
- PL [1]: 145.2 mg/dL
- RALB [1]: 3.3 g/dL
- TBIL [1]: 0.1 mg/dL
- TC [1]: 71.6 mg/dL
- TG [1]: 84.6 mg/dL
- TP [1]: 5.4 g/dL
- gamma-GTP [1]: 0.8 IU/L
- TERMINAL_BW [2]: 256.3 g
- TERMINAL_BW [3]: 316.1 g
- TERMINAL_BW [4]: 396.1 g
- APTT [2]: 19.2 s
- Bas [2]: 0%
- Eos [2]: 1%
- Fbg [2]: 210.8 mg/dL
- Ht [2]: 40.7%
- Lym [2]: 83.8%
- MCH [2]: 21.2 pg
- MCHC [2]: 34.3%
- MCV [2]: 61.9 fL
- Mono [2]: 2.6%
- Neu [2]: 12.4%
- Plat [2]: 132.8 x10_4/uL
- RBC [2]: 658.4 x10_4/ul
- Ret [2]: 5.8%
- WBC [2]: 96.1 x10_2/uL
- APTT [3]: 18.3 s
- Bas [3]: 0%
- Eos [3]: 1%
- Fbg [3]: 228.2 mg/dL
- Ht [3]: 40.9%
- Lym [3]: 78.6%
- MCH [3]: 20.7 pg
- MCHC [3]: 35.2%
- MCV [3]: 58.9 fL
- Mono [3]: 2.4%
- Neu [3]: 17.6%
- Plat [3]: 140.4 x10_4/uL
- RBC [3]: 695 x10_4/ul
- Ret [3]: 4.7%
- WBC [3]: 114.6 x10_2/uL
- APTT [4]: 19.4 s
- Bas [4]: 0%
- Eos [4]: 1%
- Fbg [4]: 227.8 mg/dL
- Ht [4]: 42.7%
- Lym [4]: 83%
- MCH [4]: 19.2 pg
- MCHC [4]: 34.9%
- MCV [4]: 55.1 fL
- Mono [4]: 2.2%
- Neu [4]: 12.8%
- Plat [4]: 108.4 x10_4/uL
- RBC [4]: 775.4 x10_4/ul
- Ret [4]: 2.6%
- WBC [4]: 129.7 x10_2/uL
- ALP [2]: 909.6 IU/L
- ALT [2]: 33.6 IU/L
- AST [2]: 66 IU/L
- BUN [2]: 17.2 mg/dL
- CRE [2]: 0.4 mg/dL
- DBIL [2]: 0.08 mg/dL
- GLC [2]: 223.2 mg/dL
- IP [2]: 8 mg/dL
- K [2]: 3.8 meq/L
- LDH [2]: 199.6 IU/L
- Na [2]: 141 meq/L
- PL [2]: 146.2 mg/dL
- RALB [2]: 3.4 g/dL
- TBIL [2]: 0.1 mg/dL
- TC [2]: 68.8 mg/dL
- TG [2]: 106.4 mg/dL
- TP [2]: 5.5 g/dL
- gamma-GTP [2]: 1.2 IU/L
- ALP [3]: 946.4 IU/L
- ALT [3]: 34.8 IU/L
- AST [3]: 64.4 IU/L
- BUN [3]: 19 mg/dL
- CRE [3]: 0.4 mg/dL
- DBIL [3]: 0.098 mg/dL
- GLC [3]: 231.4 mg/dL
- IP [3]: 7.1 mg/dL
- K [3]: 3.6 meq/L
- LDH [3]: 198.8 IU/L
- Na [3]: 140.6 meq/L
- PL [3]: 166 mg/dL
- RALB [3]: 3.5 g/dL
- TBIL [3]: 0.1 mg/dL
- TC [3]: 77 mg/dL
- TG [3]: 137.2 mg/dL
- TP [3]: 5.9 g/dL
- gamma-GTP [3]: 1.2 IU/L
- ALP [4]: 657.8 IU/L
- ALT [4]: 34.8 IU/L
- AST [4]: 64.4 IU/L
- BUN [4]: 17.6 mg/dL
- CRE [4]: 0.5 mg/dL
- DBIL [4]: 0.088 mg/dL
- GLC [4]: 208.8 mg/dL
- IP [4]: 6.9 mg/dL
- K [4]: 3.9 meq/L
- LDH [4]: 175.2 IU/L
- Na [4]: 140.2 meq/L
- PL [4]: 150.6 mg/dL
- RALB [4]: 3.5 g/dL
- TBIL [4]: 0.1 mg/dL
- TC [4]: 66.4 mg/dL
- TG [4]: 155 mg/dL
- TP [4]: 6.1 g/dL
- gamma-GTP [4]: 1 IU/L
- TERMINAL_BW [5]: 226.4 g
- APTT [5]: 18.3 s
- Bas [5]: 0%
- Eos [5]: 1%
- Fbg [5]: 221.6 mg/dL
- Ht [5]: 38.6%
- Lym [5]: 78%
- MCH [5]: 21.7 pg
- MCHC [5]: 34.2%
- MCV [5]: 63.3 fL
- Mono [5]: 3.4%
- Neu [5]: 17%
- Plat [5]: 137.5 x10_4/uL
- RBC [5]: 609.4 x10_4/ul
- Ret [5]: 7.3%
- WBC [5]: 105.8 x10_2/uL
- ALP [5]: 892.6 IU/L
- ALT [5]: 36 IU/L
- AST [5]: 69 IU/L
- BUN [5]: 15.4 mg/dL
- CRE [5]: 0.4 mg/dL
- DBIL [5]: 0.076 mg/dL
- GLC [5]: 210.4 mg/dL
- IP [5]: 8.7 mg/dL
- K [5]: 4 meq/L
- LDH [5]: 217.4 IU/L
- Na [5]: 140.8 meq/L
- PL [5]: 160.4 mg/dL
- RALB [5]: 3.4 g/dL
- TBIL [5]: 0.1 mg/dL
- TC [5]: 78.4 mg/dL
- TG [5]: 84.2 mg/dL
- TP [5]: 5.5 g/dL
- gamma-GTP [5]: 1.4 IU/L
- TERMINAL_BW [6]: 255.3 g
- TERMINAL_BW [7]: 314.8 g
- TERMINAL_BW [8]: 407 g
- APTT [6]: 19 s
- Bas [6]: 0%
- Eos [6]: 1%
- Fbg [6]: 211.6 mg/dL
- Ht [6]: 40.1%
- Lym [6]: 82.6%
- MCH [6]: 21.3 pg
- MCHC [6]: 34.4%
- MCV [6]: 62 fL
- Mono [6]: 3%
- Neu [6]: 12.8%
- Plat [6]: 133.3 x10_4/uL
- RBC [6]: 647.4 x10_4/ul
- Ret [6]: 5.7%
- WBC [6]: 143.8 x10_2/uL
- APTT [7]: 18.3 s
- Bas [7]: 0%
- Eos [7]: 1%
- Fbg [7]: 229.2 mg/dL
- Ht [7]: 41.1%
- Lym [7]: 83.8%
- MCH [7]: 20.7 pg
- MCHC [7]: 35%
- MCV [7]: 59.1 fL
- Mono [7]: 2.6%
- Neu [7]: 12.2%
- Plat [7]: 130 x10_4/uL
- RBC [7]: 695.4 x10_4/ul
- Ret [7]: 4.7%
- WBC [7]: 113.4 x10_2/uL
- APTT [8]: 19.9 s
- Bas [8]: 0%
- Eos [8]: 1.4%
- Fbg [8]: 214.2 mg/dL
- Ht [8]: 42.1%
- Lym [8]: 82.8%
- MCH [8]: 19.6 pg
- MCHC [8]: 35.1%
- MCV [8]: 55.8 fL
- Mono [8]: 2%
- Neu [8]: 13.2%
- Plat [8]: 112.1 x10_4/uL
- RBC [8]: 755.6 x10_4/ul
- Ret [8]: 2.7%
- WBC [8]: 101.3 x10_2/uL
- ALP [6]: 833.2 IU/L
- ALT [6]: 35.2 IU/L
- AST [6]: 65.6 IU/L
- BUN [6]: 16.2 mg/dL
- CRE [6]: 0.4 mg/dL
- DBIL [6]: 0.084 mg/dL
- GLC [6]: 219.6 mg/dL
- IP [6]: 8.2 mg/dL
- K [6]: 3.7 meq/L
- LDH [6]: 193.8 IU/L
- Na [6]: 140.2 meq/L
- PL [6]: 143.4 mg/dL
- RALB [6]: 3.4 g/dL
- TBIL [6]: 0.1 mg/dL
- TC [6]: 73.2 mg/dL
- TG [6]: 86.4 mg/dL
- TP [6]: 5.6 g/dL
- gamma-GTP [6]: 1.6 IU/L
- ALP [7]: 914.4 IU/L
- ALT [7]: 34.8 IU/L
- AST [7]: 65.8 IU/L
- BUN [7]: 17.2 mg/dL
- CRE [7]: 0.4 mg/dL
- DBIL [7]: 0.086 mg/dL
- GLC [7]: 234 mg/dL
- IP [7]: 7.5 mg/dL
- K [7]: 4 meq/L
- LDH [7]: 192 IU/L
- Na [7]: 141.2 meq/L
- PL [7]: 151.2 mg/dL
- RALB [7]: 3.3 g/dL
- TBIL [7]: 0.1 mg/dL
- TC [7]: 74.4 mg/dL
- TG [7]: 106 mg/dL
- TP [7]: 5.8 g/dL
- gamma-GTP [7]: 0.8 IU/L
- ALP [8]: 660.2 IU/L
- ALT [8]: 37.4 IU/L
- AST [8]: 65 IU/L
- BUN [8]: 19 mg/dL
- CRE [8]: 0.4 mg/dL
- DBIL [8]: 0.1 mg/dL
- GLC [8]: 200 mg/dL
- IP [8]: 6.8 mg/dL
- K [8]: 3.8 meq/L
- LDH [8]: 168.2 IU/L
- Na [8]: 141.4 meq/L
- PL [8]: 147.2 mg/dL
- RALB [8]: 3.4 g/dL
- TBIL [8]: 0.2 mg/dL
- TC [8]: 63.8 mg/dL
- TG [8]: 158.4 mg/dL
